In US20090048157A1, “USE OF ORGANIC COMPOUNDS” (priority 2004, published 2009):

What was measured:
Type in all cases: in vivo, human
[1] = tested on: N-MID Osteocalcin (bone formation marker); test: N-MID Osteocalcin ELISA response to oral SCT in postmenopausal women, clinical trial; settings: 0.15-2.5 mg daily or 1.0 mg every other day, compared with placebo
Excerpt: The N-MID® Osteocalcin ELISA (Nordic Bioscience Diagnostics A/S, cat. no. 3OSC4000) is an enzyme innuosorbent assay for quantitative assessment of bone formation, and has been cleared by the FDA. It is based upon the application of two highly specific monoclonal antibodies (Mabs) against human osteocalcin. An antibody recognizing the midregion (amino acids 20-29) is used as the capture antibody and for detection a peroxidase conjugated antibody recognizing the N-terminal region (amino acids 10-16) is used. In addition to intact osteocalcin (amino acid 1-49) the N-terminal-Mid fragment (amino acids 1-43) is also detected. […] Finally, the absorbance is measured.
(§1) The response of serum CTX-I and N-MID® Osteocalcin to SCT in postmenopausal women is examined in a multi-center, randomised, double-blind, placebo-controlled, dose-ranking clinical trial including 277 study participants aged 55-85 years (the study has been described in detail in Tank{acute over (0)} et al., J Bone Miner Res., in print). The study participants receives active treatment (daily doses of 0.15, 0.4, 1.0, or 2.5 mg or 1.0 mg every other day) or placebo for three months and serum CTX-I as well as N-MID® Osteocalcin are measured frequently during a 24-hours period before drug administration and after one and three months.

[2] = tested on: Serum CTX-I (bone resorption marker); test: Serum CTX-I response to oral SCT in postmenopausal women, clinical trial; settings: after the first dose, 0.15, 0.4, 1.0 or 2.5 mg, dose-dependent, compared with placebo
Excerpt: Serum CTX-I, or CrossLaps® (Nordic Bioscience Diagnostics A/S, cat. no. 4CRL4000) is an enzyme-immunoassay for quantitative assessment of bone resorption, and has been cleared by the FDA. It is based on two highly specific monoclonal antibodies against the amino acid sequence of EKAHD-β-GGR originating from the C-telopeptide of type I collagen. The aspartic acid residue (D) is β-isomerized. Standards, control, or unknown serum samples are pipetted into the appropriate microtitre wells coated with streptavidin, followed by application of a mixture of a biotinylated antibody and a peroxidase-conjugated antibody. […] Finally, the absorbance is measured.
as §1

[3] = tested on: Serum CTX-I (bone resorption marker); test: Serum CTX-I (CrossLaps) after single doses of oral or iv salmon calcitonin in male volunteers; settings: eight male volunteers, oral and iv SCT
Excerpt: Serum CTX-I, or CrossLaps® (Nordic Bioscience Diagnostics A/S, cat. no. 4CRL4000) is an enzyme-immunoassay for quantitative assessment of bone resorption, and has been cleared by the FDA. It is based on two highly specific monoclonal antibodies against the amino acid sequence of EKAHD-β-GGR originating from the C-telopeptide of type I collagen. The aspartic acid residue (D) is β-isomerized. Standards, control, or unknown serum samples are pipetted into the appropriate microtitre wells coated with streptavidin, followed by application of a mixture of a biotinylated antibody and a peroxidase-conjugated antibody. Then, a complex between the CTX antigens, biotinylated antibody and peroxidase-conjugated antibody is generated, and this complex binds to the streptavidin surface via the biotinylated antibody. Following the one-step incubation at room temperature, the wells are emptied and washed. A chromogenic substrate is added and the colour reaction is stopped with sulfuric acid. Finally, the absorbance is measured.
The effect of oral salmon calcitonin (SCT) on the serum levels of CTX-I is investigated by randomising study participants (eight male volunteers) to receive three. single doses of SCT, a verum intravenous infusion of SCT or placebo in a five-period cross-over design (the study is described in detail in Buchlin et al., J Bone Miner Res., (2002); 17:1478-1485).

## salmon calcitonin [SCT]
[1]
  Changes of N-MID Osteocalcin: non-significant
[2]
  Serum CTX-I decrease from baseline: −60.8 to −81.8%
[3]
  Time to nadir of serum CTX-I post-treatment: 2 to 4 h
  Time to return of serum CTX-I to pre-treatment levels: 24 h
[3]; cross-over vs placebo
  Serum CTX-I: inhibition of bone resorption: marked dose-dependent inhibition of bone resorption
